# Tests used:
# [1] = oral administration of wet pulverized formulations to rats, AUC of concentration in blood; assay type: in vivo, Wister male rats; details: rat, plasma, 50 mg/kg, 50 mg/5 ml/kg, compound 40 w/v%, HCO-60 10 w/v%
# Experimental: Each of four wet pulverized formulations having different particle sizes [composition: Compound No. 3 (40 w/v%) and HCO-60 (10 w/v%)] was forcibly orally administered by an oral sonde to a group of 5 Wister male rats (body weight: 200 g) starved for 18 hours (dose: 50 mg/5 ml/kg). Then, blood (0.3 ml) was periodically sampled with heparin from the jugular vein. The blood thus obtained was subjected to separation of the plasma and removal of proteins by using acetonitrile, and then Compound No. 3 was quantitatively analyzed by a high speed liquid chromatography using a reversed phase column (Nova Pak C18, 5μ, 3.9 mm in diameter×150 mm, Nihon Waters), and the curve of the concentration in blood was prepared. From the curve of the concentration in blood, the area below the curve was obtained by using a trapezoid formula and presented as AUC (Area Under the Curve).
# [2] = stability of particles in the liquid composition on storage at room temperature; assay type: physicochemical; details: compound 40 w/v%, HCO-60 10 w/v%
# Experimental: (§1) The average particle size was measured in such a manner that the benzoyl urea compound was diluted to a concentration of 20 μg/ml and the average particle size was measured by a light scattering method (Autosizer, Model 700, manufactured by Maruburn Company) (the same applies hereinafter).
# The stability of particles in the liquid composition of the benzoyl urea compound was investigated.
# Namely, a wet pulverization formulation comprising compound No. 3 (40 w/v%) and HCO-60 (10 w/v%) was stored at room temperature, whereby the stability of the particles was investigated.
# [3] = average particle size of pulverized benzoyl urea compound by light scattering (Autosizer Model 700); assay type: physicochemical; details: for average particle size in the liquid formulation: 3000 rpm 45 minutes, autoclaved
# Experimental: Compound No. 3, No. 5 or No. 6 (4 w/v%) as the benzoyl urea compound and polyoxyethylene hardened caster oil 60 (HCO-60, manufactured by Nikko Chemical K.K., 10 w/v%) as a dispersant were suspended in water, and after an addition of glass beads (from 1 to 1.4 mm in diameter) in an amount of the same volume, subjected to rotary pulverization by Dyno-mill for 20 minutes.
# as §1
# Compound No. 3 (4 w/v%) and the following dispersant (10 w/v%) were suspended in water, and after an addition of glass beads (from 1 to 1.4 mm in diameter) in an amount of the same volume, subjected to rotary pulverization by Dyno-mill for 45 minutes. As the dispersant, polyoxyethylene hardened caster oil 60 (HCO-60, manufactured by Nikko Chemical K.K.), polyoxyethylene (160) polyoxypropylene (30) glycol (F68, manufactured by Asahi Denka Kogyo K.K.), a decaglycerol fatty acid ester (Decagly.ester, Nikko Chemical K.K.) or polysolbate 80 (Tween 80, manufactured by Nakarai Kagaku K.K.) was employed.
# Compound No. 3 (from 10 to 40 w/v%), HCO-60 (5 w/v%) as a dispersant and glass beads (from 1 to 1.5 mm in diameter) were subjected to rotary pulverization by Dyno-mill for pulverization time of 30 minutes. Then, the average particle size of the benzoyl urea compound was measured.
# Compound No. 3 (20 w/v%), HCO-60 (from 2.5 to 10 w/v%) as the dispersant and glass beads (from 1 to 1.5 mm in diameter) were subjected to rotary pulverization by Dyno-mill for a pulverization time of 30 minutes. Then, the average particle size of the benzoyl urea compound was measured.
# Compound No. 3 (40 w/v%), HCO-60 (5 w/v%) as the dispersant and glass beads (three types having a diameter of from 0.25 to 0.5, from 0.5 to 0.75 and from 1 to 1.5 mm, respectively) were subjected to rotary pulverization by Dyno-mill for a pulverization time of 30 minutes. Then, the average particle size of the benzoyl urea compound was measured.
# Compound No. 3 (40 w/v%), HCO-60 (5 w/v%) as the dispersant and glass beads (from 0.25 to 0.5 mm in diameter), were subjected to rotary pulverization by Dyno-mill for a pulverization time of from 10 to 60 minutes. Then, the average particle size of the benzoyl urea compound was measured.
# (§2) Compound No. 3 (20 g) was suspended in 50 ml of a 5 w/v% HCO-60 aqueous solution, and the suspension was wet pulverized (3000 rpm for 45 minutes) by Dyno-mill by using 50 g of glass beads (from 0.25 to 0.5 mm in diameter). After the completion of the pulverization, glass beads were removed by sieving, to obtain a wet pulverized formulation of Compound No. 3.
# (§3) The wet pulverized formulation thus obtained was sterilized in an autoclave to obtain a liquid formulation of a final form. The average particle size of Compound No. 3 in this liquid formulation was 0.68 μm. Instead of the sterilization in an autoclave, it is possible to employ filtration to remove bacteria. If necessary, a sweetening agent, a perfume, etc. may be added.
# as §2, with “(15” for “(20”, “decaglycerol monolaurate (Decagline 1 L, manufactured by Nikko Chemical K.K.)” for “HCO-60”
# as §3, with “0.75” for “0.68”, “added. […]” for “added.”
# [4] = compound 4 w/v%, HCO-60 10 w/v%, glass beads 1 to 1.4 mm, Dyno-mill 20 minutes
structure (smiles),measurement,setting,value
O=C(NC(=O)c1ccccc1[N+](=O)[O-])Nc1ccc(Oc2ncc(Br)cn2)c(Cl)c1 [Compound No. 3],AUC(0-t) at 24 h,[1]; particle size 0.31 μm,11600 ± 2300 ng·h/mL
same,AUC(0-t) at 24 h,[1]; particle size 0.66 μm,10000 ± 1600 ng·h/mL
same,AUC(0-t) at 24 h,[1]; particle size 1.5 μm,8100 ± 1200 ng·h/mL
same,AUC(0-t) at 24 h,[1]; particle size 2.5 μm,6900 ± 1400 ng·h/mL
same,Particle size on storage,[2]; 0 months,0.7 μm
same,Particle size on storage,[2]; 1 month,0.8 μm
same,Particle size on storage,[2]; 3 months,1.3 μm
same,average particle size in the liquid formulation,"[3]; Example 1: 20 g in 50 ml 5 w/v% HCO-60, beads 0.25 to 0.5 mm",0.68 μm
same,average particle size in the liquid formulation,"[3]; Example 3: 15 g in 50 ml 5 w/v% decaglycerol monolaurate, beads 0.25 to 0.5 mm",0.75 μm
same,Particle size (average),[3]; [4],0.43 μm
same,Particle size (average),"[3]; diameter of beads 0.25-0.5 mm, compound 40 w/v%, HCO-60 5 w/v%, 30 minutes",0.30 μm
same,Particle size (average),"[3]; diameter of beads 0.5-0.75 mm, compound 40 w/v%, HCO-60 5 w/v%, 30 minutes",0.33 μm
same,Particle size (average),"[3]; diameter of beads 1-1.5 mm, compound 40 w/v%, HCO-60 5 w/v%, 30 minutes (Table 5)",0.46 μm
same,Particle size (average),"[3]; dispersant Decagly.ester 10 w/v%, compound 4 w/v%, beads 1 to 1.4 mm, 45 minutes",0.6 μm
same,Particle size (average),"[3]; dispersant F68 10 w/v%, compound 4 w/v%, beads 1 to 1.4 mm, 45 minutes",0.9 μm
same,Particle size (average),"[3]; dispersant HCO-60 2.5 w/v%, compound 20 w/v%, beads 1 to 1.5 mm, 30 minutes",0.54 μm
same,Particle size (average),"[3]; dispersant HCO-60 5 w/v%, compound 20 w/v%, beads 1 to 1.5 mm, 30 minutes (Table 4)",0.50 μm
same,Particle size (average),"[3]; dispersant HCO-60 10 w/v%, compound 4 w/v%, beads 1 to 1.4 mm, 45 minutes",0.9 μm
same,Particle size (average),"[3]; dispersant HCO-60 10 w/v%, compound 20 w/v%, beads 1 to 1.5 mm, 30 minutes",0.45 μm
same,Particle size (average),"[3]; dispersant Tween 80 10 w/v%, compound 4 w/v%, beads 1 to 1.4 mm, 45 minutes",0.6 μm
same,Particle size (average),"[3]; pulverization time 10 minutes, compound 40 w/v%, HCO-60 5 w/v%, beads 0.25 to 0.5 mm",0.38 μm
same,Particle size (average),"[3]; pulverization time 20 minutes, compound 40 w/v%, HCO-60 5 w/v%, beads 0.25 to 0.5 mm",0.33 μm
same,Particle size (average),"[3]; pulverization time 30 minutes, compound 40 w/v%, HCO-60 5 w/v%, beads 0.25 to 0.5 mm (Table 6)",0.29 μm
same,Particle size (average),"[3]; pulverization time 40 minutes, compound 40 w/v%, HCO-60 5 w/v%, beads 0.25 to 0.5 mm",0.27 μm
same,Particle size (average),"[3]; pulverization time 50 minutes, compound 40 w/v%, HCO-60 5 w/v%, beads 0.25 to 0.5 mm",0.26 μm
same,Particle size (average),"[3]; pulverization time 60 minutes, compound 40 w/v%, HCO-60 5 w/v%, beads 0.25 to 0.5 mm",0.26 μm
same,Particle size (average),"[3]; sample 10 w/v%, HCO-60 5 w/v%, beads 1 to 1.5 mm, 30 minutes",0.56 μm
same,Particle size (average),"[3]; sample 20 w/v%, HCO-60 5 w/v%, beads 1 to 1.5 mm, 30 minutes",0.50 μm
same,Particle size (average),"[3]; sample 40 w/v%, HCO-60 5 w/v%, beads 1 to 1.5 mm, 30 minutes",0.46 μm
O=C(NC(=O)c1ccccc1[N+](=O)[O-])Nc1ccc(Oc2ncc(Cl)cn2)c(C(F)(F)F)c1 [Compound No. 5],Particle size (average),[3]; [4],1.13 μm
O=C(NC(=O)c1ccccc1[N+](=O)[O-])Nc1ccc(Oc2ncc(Cl)cn2)c([N+](=O)[O-])c1 [Compound No. 6],Particle size (average),[3]; [4],0.72 μm
